Columns and labels:
Assay type in all cases: in vivo
[1] = test system: ryegrass, Italian (Italian ryegrass, Lolium multiflorum); assay: Test A preemergence; settings: Lolium multiflorum, pre-emergence, 240 h, preemergence, 0 to 100 scale where 0 is no effect and 100 is complete control, read-out: Ryegrass, Italian plant response rating
How it was run: (§1)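 Seeds sprayed preemergence with a directed soil spray, or plants at 2 to 10 cm height and one- to two-leaf stage sprayed postemergence, with test chemicals in a non-phytotoxic solvent mixture containing surfactant, in loam soil–sand blend. Injury rated visually against untreated controls after about 10 d in greenhouse, 0 (no effect) to 100 (complete control).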

[2] = test system: pigweed (Amaranthus retroflexus); assay: Test A preemergence; settings: Amaranthus retroflexus, pre-emergence, 240 h, preemergence, 0 to 100 scale where 0 is no effect and 100 is complete control, read-out: Pigweed plant response rating
[3] = test system: giant foxtail (Setaria faberii); assay: Test A preemergence; settings: Setaria faberi, pre-emergence, 240 h, preemergence, 0 to 100 scale where 0 is no effect and 100 is complete control, read-out: Foxtail, Giant plant response rating
How it was run: as §1

[4] = test system: ragweed (common ragweed, Ambrosia elatior); assay: Test A preemergence; settings: Ambrosia artemisiifolia, pre-emergence, 240 h, preemergence, 0 to 100 scale where 0 is no effect and 100 is complete control, read-out: Ragweed plant response rating
How it was run: as §1

Kochia (Kochia scoparia) [5] = assay: Test A preemergence; settings: Bassia scoparia, pre-emergence, 240 h, preemergence, 0 to 100 scale where 0 is no effect and 100 is complete control, read-out: Kochia plant response rating
How it was run: as §1

[6] = test system: barnyardgrass (Echinochloa crus-galli); assay: Test A preemergence; settings: Echinochloa crus-galli, pre-emergence, 240 h, preemergence, 0 to 100 scale where 0 is no effect and 100 is complete control, read-out: Barnyardgrass plant response rating
How it was run: as §1

[7] = test system: ryegrass, Italian (Italian ryegrass, Lolium multiflorum); assay: Test A postemergence; settings: Lolium multiflorum, post-emergence, 240 h, postemergence
How it was run: as §1

[8] = test system: pigweed (Amaranthus retroflexus); assay: Test A postemergence; settings: Amaranthus retroflexus, post-emergence, 240 h, postemergence
How it was run: as §1

[9] = test system: giant foxtail (Setaria faberii); assay: Test A postemergence; settings: Setaria faberi, post-emergence, 240 h, postemergence
How it was run: as §1

[10] = test system: ragweed (common ragweed, Ambrosia elatior); assay: Test A postemergence; settings: Ambrosia artemisiifolia, post-emergence, 240 h, postemergence
How it was run: as §1

[11] = test system: Galium (catchweed bedstraw, Galium aparine); assay: Test A postemergence; settings: Galium, post-emergence, 240 h, postemergence
How it was run: as §1

Kochia (Kochia scoparia) [12] = assay: Test A postemergence; settings: Bassia scoparia, post-emergence, 240 h, postemergence
How it was run: as §1

corn (Zea mays) = assay: Test A postemergence; settings: Zea mays, post-emergence, 240 h, postemergence
How it was run: as §1

[13] = test system: barnyardgrass (Echinochloa crus-galli); assay: Test A postemergence; settings: Echinochloa crus-galli, post-emergence, 240 h, postemergence
How it was run: as §1

[14] = test system: wheat (Triticum aestivum); assay: Test A postemergence; settings: Triticum aestivum, post-emergence, 240 h, postemergence
How it was run: as §1

CCc1cc([C@H]2CN(C)C(=O)[C@@H]2C(=O)Nc2ccccc2F)cs1 [Compound 1156]
70%: pest or weed control at 125 g/ha (Kochia (Kochia scoparia) [5]; 125 g ai/ha, approx. 10 d)
100%: pest or weed control at 500 g/ha ([3]; 500 g ai/ha) | pest or weed control at 125 g/ha ([4]; 125 g ai/ha, approx. 10 d) | pest or weed control at 500 g/ha ([4]; 500 g ai/ha)
50%: pest or weed control at 500 g/ha ([11]; 500 g ai/ha, 0 to 100 scale, 0 is no effect, 100 is complete control, read-out: Galium plant response rating) | plant injury at 500 g/ha ([14]; 500 g ai/ha, 0 to 100 scale, 0 is no effect, 100 is complete control, read-out: Wheat plant response rating)
80%: pest or weed control at 500 g/ha (Kochia (Kochia scoparia) [5]; 500 g ai/ha)
90%: pest or weed control at 125 g/ha ([3]; 125 g ai/ha, approx. 10 d) | pest or weed control at 125 g/ha ([6]; 125 g ai/ha, approx. 10 d) | pest or weed control at 500 g/ha ([6]; 500 g ai/ha) | pest or weed control at 125 g/ha ([9]; 125 g ai/ha, visual injury vs untreated controls after approx. 10 d, 0 = no effect, 100 = complete control, read-out: Foxtail, Giant plant response rating (0 to 100 scale)) | pest or weed control at 500 g/ha ([9]; 500 g ai/ha, 0 to 100 scale, 0 is no effect, 100 is complete control, read-out: Foxtail, Giant plant response rating) | pest or weed control at 125 g/ha ([13]; 125 g ai/ha, visual injury vs untreated controls after approx. 10 d, 0 = no effect, 100 = complete control, read-out: Barnyardgrass plant response rating (0 to 100 scale)) | pest or weed control at 500 g/ha ([13]; 500 g ai/ha, 0 to 100 scale, 0 is no effect, 100 is complete control, read-out: Barnyardgrass plant response rating)
30%: pest or weed control at 500 g/ha ([1]; 500 g ai/ha) | pest or weed control at 500 g/ha ([7]; 500 g ai/ha, 0 to 100 scale, 0 is no effect, 100 is complete control, read-out: Ryegrass, Italian plant response rating)
20%: pest or weed control at 125 g/ha ([1]; 125 g ai/ha, approx. 10 d) | pest or weed control at 500 g/ha ([2]; 500 g ai/ha) | pest or weed control at 125 g/ha ([7]; 125 g ai/ha, visual injury vs untreated controls after approx. 10 d, 0 = no effect, 100 = complete control, read-out: Ryegrass, Italian plant response rating (0 to 100 scale)) | pest or weed control at 500 g/ha (Kochia (Kochia scoparia) [12]; 500 g ai/ha, 0 to 100 scale, 0 is no effect, 100 is complete control, read-out: Kochia plant response rating) | plant injury at 125 g/ha (corn (Zea mays); 125 g ai/ha, visual injury vs untreated controls after approx. 10 d, 0 = no effect, 100 = complete control, read-out: Corn plant response rating (0 to 100 scale)) | plant injury at 125 g/ha ([14]; 125 g ai/ha, visual injury vs untreated controls after approx. 10 d, 0 = no effect, 100 = complete control, read-out: Wheat plant response rating (0 to 100 scale))
60%: plant injury at 500 g/ha (corn (Zea mays); 500 g ai/ha, 0 to 100 scale, 0 is no effect, 100 is complete control, read-out: Corn plant response rating)
40%: pest or weed control at 125 g/ha ([11]; 125 g ai/ha, visual injury vs untreated controls after approx. 10 d, 0 = no effect, 100 = complete control, read-out: Galium plant response rating (0 to 100 scale))
0%: pest or weed control at 125 g/ha ([2]; 125 g ai/ha, approx. 10 d) | pest or weed control at 125 g/ha ([8]; 125 g ai/ha, visual injury vs untreated controls after approx. 10 d, 0 = no effect, 100 = complete control, read-out: Pigweed plant response rating (0 to 100 scale)) | pest or weed control at 500 g/ha ([8]; 500 g ai/ha, 0 to 100 scale, 0 is no effect, 100 is complete control, read-out: Pigweed plant response rating) | pest or weed control at 125 g/ha ([10]; 125 g ai/ha, visual injury vs untreated controls after approx. 10 d, 0 = no effect, 100 = complete control, read-out: Ragweed plant response rating (0 to 100 scale)) | pest or weed control at 500 g/ha ([10]; 500 g ai/ha, 0 to 100 scale, 0 is no effect, 100 is complete control, read-out: Ragweed plant response rating) | pest or weed control at 125 g/ha (Kochia (Kochia scoparia) [12]; 125 g ai/ha, visual injury vs untreated controls after approx. 10 d, 0 = no effect, 100 = complete control, read-out: Kochia plant response rating (0 to 100 scale))
